Test results published in US6716574B2, “Osp-C derived peptide fragments” (Dako A/S, priority 1996, dated 2004).

Key:
[1] = system: IgM antibodies to OspC in sera from patients; assay: Indirect streptavidin ELISA for IgM antibodies against carboxy-terminal OspC deca-peptide (peptide ELISA); type: binding, human
Protocol: Indirect Streptavidin ELISA for IgM Antibodies against Carboxy-terminal OspC Deca-peptide (Peptide ELISA)
Flat-bottom microdilution plates (Maxisorb; Nunc, Roskilde, Denmark) were coated with 100 μl of streptavidin (ZYMED, S. Avidinii) 2.5 μg/ml in citrate buffer (pH 5) and incubated overnight at 4° C. The plates were washed four times a one minute with phosphate buffered saline (PBS) containing 0.5 M NaCl and 0.1% (vol/vol) Tween 20 (pH 7.2), 100 μl of the biotinylated synthetic peptide
(prodiluted in PBS containing 0.37 M NaCl, 0.5% (vol/vol) Tween 20, and 1% (wt/vol) milk powder (pH 7.0)) was added to the wells and the plates were incubated overnight at 4° C. The plates were washed four times a one minute with PBS containing 0.5 M NaCl and 0.1% (vol/vol) Tween 20 (pH 7.2), and 100 μl of test serum diluted 1:200 in PBS containing 0.7 M NaCl, 0.1% (vol/vol) Tween 20, and 1% (wt/vol) milkpowder (pH 7, 2) was added to the wells and incubated for 2 hours at 20° C. on a rocker platform. The plates were washed four times à one minute with PBS containing 0.5 M NaCl and 0.1% (vol/vol) Tween 20 (pH 7.2), and 100 μl of peroxidase conjugated rabbit anti-human IgM (code P215; Dako-patts, Copenhagen, Denmark) diluted 1:1000 in PBS containing 0.5% Tween 20 and 1% milkpowder (pH 7.4) was added to the wells and incubated for 1 h at 20° C. The plates were washed four times à one minute with PBS containing 0.5 M NaCl and 0.1% (vol/vol) Tween 20 (pH 7.2), and 200 μl of the substrate o-phenylenediamine (0.33 mg/ml; Kem-En-Tec, Denmark, tablets of 10 mg) in citrate buffer (pH 5) with 0.04% (vol/vol) H2O2 was added to each well. After 15 minutes protected from light, the enzymatic reaction was stopped by the addition of 50 μl of 3 M H2SO4. The optical density (OD) at 492 nm was read spectrophotometrically on an Immuno Reader, Easy reader EAR 400 AC, SLT Labinstruments, AUSTRIA. Samples were tested in duplicate and retested if the two OD values differed more than 10% from the mean. To eliminate plate-to-plate and day-to-day variations, a reference serum pool based on seven western blot positive sera were included on every plate for construction of a standard dilution curve with a two fold dilution ranging from 1:200 to 1:6400. The OD value of every sample was adjusted to this standard curve. Positive and negative control sera were included on every plate. The positive control sera were diluted 1:200, 1:400 and 1:800 on every plate to check for parallelism between the standard reference curve and the dilution curve of the positive control sera. […]

[2] = system: IgM antibodies to OspC in sera from patients; assay: Indirect ELISA for IgM antibodies to full-length and truncated recombinant OspC (rOspC ELISA); type: binding, human; settings: for immunoassay results compared with rOspCfl from B. garinii: sera of Example 2
Protocol: Indirect ELISA for IgM Antibodies to Full-length and Truncated Recombinant OspC (rOspC ELISA)
Flat-bottom microdilution plates (Maxisorb; Nunc, Roskilde, Denmark) were coated with 100 μl of rOspC diluted in 0.05 M bicarbonate pH 9.6 for 1 hour at 20° C. on a rocker platform and thereafter overnight at 4° C. The optimum coating concentration was defined as the antigen dilution resulting in the highest ratio of the optical density (OD) between a positive and a negative control serum (P/N ratio). The plates were washed four times à one minute with PBS containing 0.5 M NaCL, and 0.1% (vol/vol) Tween 20 (pH 7.2) and unspecific protein binding was blocked with 100 μl 3% (wt/vol) milk powder in PBS for 1 hour. The plates were washed four times à one minute with PBS containing 0.5 M NaCL, and 0.1% (vol/vol) Tween 20 (pH 7.2). 100 μl of serum diluted 1:200 in PBS containing 0.1% (vol/vol) Tween 20, 0.02% NaN3 and 1% (wt/vol) milk powder was added to the wells and incubated for 2 h at 20° C. The plates were washed four times à one minute with PBS containing 0.5 M NaCL, and 0.1% (vol/vol) Tween 20 (pH 7.2) and 100 μl peroxidase conjugated rabbit anti-human immunoglobulin M (IgM) (Dakopats, Copenhagen, Denmark, code P-215) diluted 1:1000 in PBS pH 7.4 with 0.05% (vol/vol) Tween 20 and 1% (wt/vol) milk powder. After the incubation for 1 h at 20° C. the plates were washed four times à one minute with PBS containing 0.5 M NaCL, and 0.1% (vol/vol) Tween 20 (pH 7.2) and 200 μl of the substrate o-phenylenediamine (0.41 mg/ml; Sigma) in citrate buffer (pH 5) with 0.04% (vol/vol) H2O2) was added to each well. After 15 minutes protected from light, the enzymatic reaction was stopped by the addition of 50 μl of 3M H2SO4. The optical density (OD) at 492 nm was read spectrophotometrically (Immuno Reader, Easy reader EAR 400 AC—SLT Labinstruments, AUSTRIA). Samples were tested in duplicate and retested, if the two OD values differed more than 10% from the mean. To eliminate plate-to-plate and day-to-day variations, a reference serum pool based on seven western blot positive sera were included on every plate for construction of a standard dilution curve with a two fold dilution ranging from 1:200 to 1:6400. The OD value of every sample was adjusted to this standard curve. Positive and negative control sera were included on every plate. The positive control sera were diluted 1:200, 1:400 and 1:800 on every plate to check for parallelism between the standard reference curve and the dilution curve of the positive control sera.
The diagnostic cutoff OD was adjusted to be 98% specific for an IgM assay on the basis of serum samples from 100 healthy danish blood donors, and was 0.230 for the IgM assay.
In a preliminary setup, rOspCt was used in the above-described rOspC ELISA. Sera from 47 patients with EM, 50 with NB, 30 with ACA and 29 with syphilis were tested against rOspCt.
The capability of an immunological agent according to the present invention to react with sera from patients in various stages of Lyme borreliosis was evaluated against that of recombinant OspC derived from B. garinii and against conventional flagellum ELISAs (performed as described in Hansen K. et al. (1991) and Hansen K. et al. (1988)). These flagellum assays (testing for IgM and IgG antibodies to native B. burgdorferi flagellum) are commercially available, a μ-capture ELISA (DAKO, Denmark code K006), and an indirect IgG ELISA (DAKO, Denmark code K416). Both assays use flagella purified from strain DK1 belonging to the genospecies of B. afzelii. The ELISAs were performed according to the instructions of the manufacturer, and the results were expressed as optical density (OD) values. In both assays the diagnostic cut-off level was adjusted to a specificity of 98% based on the examination of 100 blood donors.

With “6-aminohexanoic acid-Pro-Val-Val-Ala-Glu-Ser-Pro-Lys-Lys-Pro [Peptide]” the “OD titer compared with the rOspCfl ELISA” value ([1]; EM and NB sera, IgM, FIGS. 1-4) was “significantly higher”, the “frequency (%) of positive sera, Peptide ELISA” value (“frequency (%) of positive sera” below) ([1]; EM sera (n = 80), IgM, cutoff OD 0.460) was “n = 26 (32.5%)” and the “Peptide IgM negative and Flagellum IgM negative” value ([1]; EM, n = 80) was “n = 44 (55.00%)”. The “Peptide IgM negative and Flagellum IgM positive” value ([1]; EM, n = 80) was “n = 10 (12.50)”, the “Peptide IgM positive and Flagellum IgM negative” value ([1]; EM, n = 80) was “n = 6 (7.50%)” and the “Peptide IgM positive and Flagellum IgM positive” value ([1]; EM, n = 80) was “n = 20 (25.00%)”. For the same molecule, the “Peptide IgM negative” value ([1]; EM, n = 80, all sera) was “n = 54 (67.5%)”, the “Peptide IgM positive” value ([1]; EM, n = 80, all sera) was “n = 26 (32.5%)” and the “frequency (%) of positive sera” value ([1]; Early Lyme borreliosis (EM and NB) sera (n = 181), IgM) was “n = 72 (39.8%)”. The “frequency (%) of positive sera” value ([1]; NB sera (n = 101), IgM) was “n = 46 (45.5%)”, the “Decapeptide IgM negative and Flagellum IgM negative” value ([1]; NB, n = 101) was “n = 25 (24.75%)” and the “Decapeptide IgM negative and Flagellum IgM positive” value ([1]; NB, n = 101) was “n = 30 (29.70%)”. The “Decapeptide IgM positive and Flagellum IgM negative” value ([1]; NB, n = 101) was “n = 12 (11.88%)”, the “Decapeptide IgM positive and Flagellum IgM positive” value ([1]; NB, n = 101) was “n = 33 (32.67%)” and the “Decapeptide IgM negative” value ([1]; NB, n = 101, all sera) was “n = 55 (54.5%)”. For the same molecule, the “Decapeptide IgM positive” value ([1]; NB, n = 101, all sera) was “n = 46 (45.5%)”, the “sensitivity of the peptide ELISA relative to the rOspCfl ELISA” value ([1]; detecting early Lyme borreliosis (stage 1 and 2)) was “approximately 86%” and the “increase of overall sensitivity for IgM when adding peptide ELISA results to flagellum ELISA results” value ([1]; first stage (EM)) was 7.5%. For the same molecule, the “accuracy (ROC plot) compared with the rOspCfl ELISA” value ([1]; patients suffering from NB, FIG. 6) was “more accurate” and the “increase of overall sensitivity for IgM when adding peptide ELISA results to flagellum ELISA results” value ([1]; second stage (NB)) was 12%.

B1: rOspCfl from B. afzelii: full-length recombinant OspC from strain DK26 of Borrelia afzelii (SEQ ID NO: 7) (protein, listed as Borrelia afzelii)
chain: MKKNTLSAILMTLFLFISCNNSGKGGDSASTNPADESAKGPNLTEISKKITDSNAFVLAVKEVETLVLSIDELAKKAIGQKIDNNNGLAALNNQNGSLLAGAYAISTLITEKLSKLKNLEELKTEIAKAKKCSEEFTNKLKSGHADLGKQDATDDHAKAAILKTHATTDKGAKEFKDLFESVEGLLKAAQVALTNSVKELTSPVVAESPKKP
With B1 the “immunoassay results compared with rOspCfl from B. garinii” value [2] was “almost identical picture”.

B2: rOspCfl from B. burgdorferi sensu stricto: full-length recombinant OspC from strain DK7 of Borrelia burgdorferi sensu stricto (SEQ ID NO: 5) (protein)
chain: MKKNTLSAILMTLFLFISCNNSGKDGNTSANSADESVKGPNLTEISKKITDSNAVLLAVKEVEALLSSIDELAKAIGKKIKNDGSLGDEANHNESLLAGAYTISTLITQKLSKLNGSEGLKEKIAAAKKCSEEFSTKLKDNHAQLGIQGVTDENAKKAILKANAAGKDKGVEELEKLSGSLESLSKAAKEMLANSVKELTSPVVVESPKKP
modifications: Borrelia burgdorferi sensu stricto
For B2, the “immunoassay results compared with rOspCfl from B. garinii” value [2] was “almost identical picture”.

B3: B. afzelii derived rOspCt: recombinant B. afzelii DK26 OspC truncate lacking the seven C-terminal amino acids (protein)
chain: CNNSGKGGDSASTNPADESAKGPNLTEISKKITDSNAFVLAVKEVETLVLSIDELAKKAIGQKIDNNNGLAALNNQNGSLLAGAYAISTLITEKLSKLKNLEELKTEIAKAKKCSEEFTNKLKSGHADLGKQDATDDHAKAAILKTHATTDKGAKEFKDLFESVEGLLKAAQVALTNSVKELTSPVV
modifications: left off: small tags and cut ends
notes: recombinant B. afzelii DK26 OspC truncate lacking the seven C-terminal amino acids
With B3 the “Positive rOspCt ELISA results” value ([2]; serum panel 1, IgM) was “no positives”.

B4: rOspCt: recombinant B. garinii OspC truncate which lacks the 7 carboxyterminal amino acids (protein)
chain: CNNSGGDSASTNPDESAKGPNLTVISKKITDSNAFLLAVKEVEALLSSIDELSKAIGKKIKNDGTLDNEANRNESLIAGAYEISKLITQKLSVLNSEELKEKIKEAKDCSEKFTTKLKDSHAELGIQSVQDDNAKKAILKTHGTKDKGAKELEELFKSLESLSKAAQAALTNSVKELTNPVVAESPKKP
modifications: left off: small tags and cut ends
notes: recombinant B. garinii OspC truncate which lacks the 7 carboxyterminal amino acids
For B4, the “Positive rOspCt ELISA results” value ([2]; ACA sera (N = 30), IgM, B. garinii rOspCt) was “n = 0 (0.00%)”, the “Positive rOspCt ELISA results” value ([2]; EM and NB sera (n = 97), IgM, B. garinii rOspCt) was “n = 4 (4.12%)” and the “Positive rOspCt ELISA results” value ([2]; EM sera (n = 47), serum panel 1, IgM, B. garinii rOspCt, 98% specific cutoff) was “n = 1 (2.12%)”. For the same molecule, the “Positive rOspCt ELISA results” value ([2]; NB sera (n = 50), serum panel 1, IgM, B. garinii rOspCt) was “n = 3 (6.00%)” and the “Positive rOspCt ELISA results” value ([2]; Syphilis control sera (n = 29), IgM, B. garinii rOspCt) was “n = 5 (17.24%)”.
